Experimental data reported in patent publication US20080132417A1, “Molecular Basis For The Identification Of Chemotherapy Resistance In Human Tumors And The Treatment Thereof” (THE UAB RESEARCH FOUNDATION, priority 2004, published 2008).
Values after ≈ are worked out from the molar mass of the structure shown.

Experiments:
Type in all cases: cell-based, human
[1] = system: SW948CPTL cells; assay: Cell proliferation assay, cross-resistance of SW948CPTL; conditions: for IC50: Homo sapiens, read-out: mean IC50 dose, SW948CPTL; for resistance of SW948CPTL cells (in words): compared to SW948; for fold change, SW948CPTL: fold change of IC50 vs SW948 (in brackets); for mean IC50 dose, SW948CPTL: SW948CPTL cells, without CPT-11 for >28 days, 24 h drug exposure, counted day 4, mean ± SD
Method: (§1) Determination of cross-resistance was determined by cell proliferation assay. SW948, SW948CPTH or SW948CPTL cells were plated in 24-well tissue culture plates and allowed to grow for 24 h at which time the drugs were added at various doses ranging from 0-80 μg/ml. Then 24 h later, the culture medium was removed, and the cells were washed once with PBS followed by the addition of drug-free culture medium. Cells were counted on day 4 using a cell counter (Beckman Coulter, Fullerton, Calif.). The data were analyzed with Microsoft Excel (Microsoft Corp., Redmond, Wash.) using an exponential regression model to determine the IC50 dose.

[2] = system: SW948 cells; assay: Cell proliferation assay, sensitivity of SW948 to various drugs; conditions: SW948 parental cells, 24 h drug exposure, cells counted day 4, mean ± SD of 1-4 assays; for IC50: Homo sapiens, read-out: mean IC50 dose, SW948
Method: as §1

[3] = system: SW948CPTH cells; assay: Cell proliferation assay, cross-resistance of SW948CPTH; conditions: for IC50: Homo sapiens, read-out: mean IC50 dose, SW948CPTH; for cross-resistance of SW948CPTH cells (in words): compared to SW948; for fold change, SW948CPTH: fold change of IC50 vs SW948 (in brackets); for mean IC50 dose, SW948CPTH: SW948CPTH cells, without CPT-11 for >22 days, 24 h drug exposure, counted day 4, mean ± SD
Method: as §1

Row | SMILES | IC50 [1] [µg/mL] | IC50 [3] [µg/mL] | resistance of SW948CPTL cells (in words) [1] | fold change, SW948CPTL [1] | IC50 [2] [µg/mL] | cross-resistance of SW948CPTH cells (in words) [3] | fold change, SW948CPTH [3] | mean IC50 dose, SW948 [2] [µg/mL] | mean IC50 dose, SW948CPTH [3] [µg/mL] | mean IC50 dose, SW948CPTL [1] [µg/mL]
1 | CC[C@@]1(O)C(=O)OCc2c1cc1n(c2=O)Cc2cc3ccccc3nc2-1 [CPT, camptothecin] | 0.14 (≈ 0.402 µM) | 0.32 ± 0.02 (≈ 0.919 µM) | showed resistance | 2.4 | 0.057 ± 0.02 (≈ 0.164 µM) | cross-resistant | 6 |  |  | 
2 | CC[C@@]1(O)C(=O)OCc2c1cc1n(c2=O)Cc2cc3cc(O)ccc3nc2-1 [10-OH-CPT] |  |  |  |  |  | cross-resistant | 7 | 0.25 ± 0.16 | 1.7 ± 0.3 | 
3 | CCc1c2c(nc3ccc(OC(=O)N4CCC(N5CCCCC5)CC4)cc13)-c1cc3c(c(=O)n1C2)COC(=O)[C@]3(O)CC [CPT-11] |  |  | showed resistance |  |  | cross-resistant |  | 3.0 ± 0.3 | 38 ± 6.9 | 
4 | CCc1c2c(nc3ccc(O)cc13)-c1cc3c(c(=O)n1C2)COC(=O)[C@]3(O)CC [SN38] |  |  | showed resistance | 9 |  | cross-resistant | 8 | 0.19 ± 0.01 | 1.5 ± 0.13 | 1.7 ± 0.15
5 | O=c1[nH]cc(F)c(=O)[nH]1 [5-FU, 5-fluorouracil] | 0.75 ± 0.02 (≈ 5.77 µM) | 0.54 ± 0.2 (≈ 4.15 µM) | no resistance |  | 0.61 ± 0.1 (≈ 4.69 µM) | No resistant |  |  |  | 
6 | N.N.[Cl][Pt][Cl] [Cisplatin, cisplatin] |  |  | showed resistance | 1.7 |  | No resistant |  | 1.3 ± 0.34 | 1.5 ± 0.15 | 2.2 ± 1.3

More lines, main results first:

Row | IC50 [1] [µg/mL] | IC50 [3] [µg/mL] | SMILES | resistance of SW948CPTL cells (in words) [1] | fold change, SW948CPTL [1] | IC50 [2] [µg/mL] | cross-resistance of SW948CPTH cells (in words) [3] | fold change, SW948CPTH [3] | mean IC50 dose, SW948 [2] [µg/mL] | mean IC50 dose, SW948CPTH [3] [µg/mL] | mean IC50 dose, SW948CPTL [1] [µg/mL]
7 | 0.016 (≈ 0.0608 µM) | 0.008 ± 0.004 (≈ 0.0304 µM) | Nc1ccn([C@@H]2O[C@H](CO)[C@@H](O)C2(F)F)c(=O)n1 [Gemcitabine, gemcitabine] | showed resistance | 1.8 | 0.009 ± 0.004 (≈ 0.0342 µM) | No resistant |  |  |  | 
8 |  | 0.84 ± 0.21 (≈ 3.47 µM) | CC1(C)CCC2=C(O1)c1ccccc1C(=O)C2=O [Lapachone] |  |  | 1.06 ± 0.16 (≈ 4.38 µM) | not cross-resistant |  |  |  | 
9 |  | 0.048 ± 0.008 (≈ 0.0883 µM) | COc1cccc2c1C(=O)c1c(O)c3c(c(O)c1C2=O)C[C@@](O)(C(=O)CO)C[C@@H]3O[C@H]1C[C@H](N)[C@H](O)[C@H](C)O1 [Doxorubicin, doxorubicin] |  |  | 0.037 ± 0.008 (≈ 0.0681 µM) | No resistant |  |  |  | 
10 | 1.6 ± 0.2 (≈ 2.72 µM) | 0.7 ± 0.2 (≈ 1.19 µM) | COc1cc([C@@H]2c3cc4c(cc3[C@@H](O[C@@H]3O[C@@H]5CO[C@@H](C)O[C@H]5[C@H](O)[C@H]3O)[C@H]3COC(=O)[C@H]23)OCO4)cc(OC)c1O [Etoposide, etoposide] | showed resistance | 2 | 0.8 ± 0.1 (≈ 1.36 µM) | not cross-resistant |  |  |  | 
